Source: patent publication US9655887B2, “Pharmaceutical composition and the use thereof, and application regime of said pharmaceutical composition for on-demand contraception” (BAYER PHARMA AKTIENGESELLSCHAFT, priority 2013, dated 2017)
Marks after values point to notes of the source that are not given here. One block for each compound: values may come before it.

Tests used:
[1] = target: EP4 subtype of the human PGE2 receptor (hEP4) (Homo sapiens, UniProt P35408); assay: cAMP antagonism test, human prostaglandin E2 (subtype EP4) receptor signal; assay type: cell-based; conditions: selectivity towards hEP4, IC50 measured by cAMP antagonism test
Sequence of EP4 subtype of the human PGE2 receptor (hEP4) (P35408 whole entry): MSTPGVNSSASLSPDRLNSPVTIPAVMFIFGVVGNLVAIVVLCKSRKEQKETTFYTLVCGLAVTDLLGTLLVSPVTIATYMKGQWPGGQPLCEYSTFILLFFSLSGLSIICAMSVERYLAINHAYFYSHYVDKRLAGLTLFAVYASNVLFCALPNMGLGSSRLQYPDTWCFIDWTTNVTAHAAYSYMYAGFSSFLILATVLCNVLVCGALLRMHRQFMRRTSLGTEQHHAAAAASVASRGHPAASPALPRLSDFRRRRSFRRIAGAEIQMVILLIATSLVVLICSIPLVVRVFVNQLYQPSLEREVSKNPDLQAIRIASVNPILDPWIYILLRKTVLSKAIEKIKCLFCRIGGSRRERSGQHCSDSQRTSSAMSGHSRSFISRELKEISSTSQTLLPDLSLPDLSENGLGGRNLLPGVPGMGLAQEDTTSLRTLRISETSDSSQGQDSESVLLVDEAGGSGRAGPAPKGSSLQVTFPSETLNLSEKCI
Source text: 2. Detection of Antagonism to the Human Prostaglandin E2 (Subtype EP4) Receptor Signal
(§1) The binding of PGE2 to the EP4 subtype of the human PGE2 receptor induces the activation of membrane-located adenylate cyclases and leads to the formation of cAMP. In the presence of the phosphodiesterase inhibitor IBMX, the cAMP accumulated owing to this stimulation and released by cell lysis is used in a competitive detection method. In this test, the cAMP present in the lysate competes with a fluorescence-labelled cAMP (cAMP-d2) for binding to an Eu cryptate-labelled anti-cAMP antibody.
(§2) In the absence of cellular cAMP a maximal signal is produced, which is attributable to the binding of this cAMP-d2 molecule to the antibody. After excitation of the […] at 337 nm, there is a fluorescence resonance energy transfer (FRET) to the Eu cryptate molecules of the anti-cAMP antibody (labelled therewith), followed by a long-lasting emission signal at 665 nm (and at […]). Both signals are measured in a suitable measurement instrument with a time delay, i.e. after decay of the background fluorescence. Any increase in the low FRET signal caused by prostaglandin E2 administration (measured as well ratio change=emission665nm/emission620nm*10000) indicates the action of antagonists.
2.2.1. Test for Antagonism (Data Per Well of a 384-Well Plate):
(§3) To a test plate with the substance solutions already added (0.05 μl; 100% DMSO, concentration range from 0.8 nM-16.5 uM) were added 4 μl of a cAMP-d2/cell suspension (312500 cells/ml). After a 20-minute preincubation at room temperature (RT), 2 μl of a 3×PGE2 solution (0.3 nM, in PBS-IBMX) were added and incubated in the presence of the agonist for a further 60 mins at RT (volume: ˜6 μl). Next the reaction was stopped by addition of 2 μl of lysis buffer and incubated for a further 20 mins at RT before the actual measurement (volume: ˜8 μl).

[2] = target: T1, human PGD receptor (hDP) (Homo sapiens, UniProt Q13258); assay: cAMP antagonism test, human prostaglandin D receptor signal; assay type: cell-based; conditions: selectivity towards hDP, IC50 measured by cAMP antagonism test
T1 sequence (Q13258 1-359): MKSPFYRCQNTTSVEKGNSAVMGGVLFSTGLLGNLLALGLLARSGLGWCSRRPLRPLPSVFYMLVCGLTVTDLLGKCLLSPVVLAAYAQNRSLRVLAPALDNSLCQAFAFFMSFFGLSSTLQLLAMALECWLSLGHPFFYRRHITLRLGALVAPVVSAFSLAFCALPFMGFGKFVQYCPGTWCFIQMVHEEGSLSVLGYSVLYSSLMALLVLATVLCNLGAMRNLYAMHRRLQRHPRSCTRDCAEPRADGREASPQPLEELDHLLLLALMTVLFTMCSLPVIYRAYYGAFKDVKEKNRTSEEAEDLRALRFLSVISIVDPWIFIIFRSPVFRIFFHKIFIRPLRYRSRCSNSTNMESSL
Source text: 3. Detection of Antagonism to the Human Prostaglandin D Receptor Signal
as §1, with “of prostaglandin D2” for “of PGE2”, “the” for “the EP4 subtype of the”, “human PGD” for “human PGE2”
as §2, with “cellular cAMP,” for “cellular cAMP”
3.2.1. Test for Antagonism (Data Per Well of a 384-Well Plate):
as §3, with “nM)” for “uM)”, “(625000” for “(312500”, “3×PGD2” for “3×PGE2”, “(6” for “(0.3”, “30” for “60”

[3] = target: EP2 subtype of the human PGE2 receptor (hEP2 receptor) (Homo sapiens, UniProt P43116); assay: cAMP antagonism test, human prostaglandin E2 (subtype EP2) receptor signal; assay type: cell-based
Sequence of EP2 subtype of the human PGE2 receptor (hEP2 receptor) (P43116 whole entry): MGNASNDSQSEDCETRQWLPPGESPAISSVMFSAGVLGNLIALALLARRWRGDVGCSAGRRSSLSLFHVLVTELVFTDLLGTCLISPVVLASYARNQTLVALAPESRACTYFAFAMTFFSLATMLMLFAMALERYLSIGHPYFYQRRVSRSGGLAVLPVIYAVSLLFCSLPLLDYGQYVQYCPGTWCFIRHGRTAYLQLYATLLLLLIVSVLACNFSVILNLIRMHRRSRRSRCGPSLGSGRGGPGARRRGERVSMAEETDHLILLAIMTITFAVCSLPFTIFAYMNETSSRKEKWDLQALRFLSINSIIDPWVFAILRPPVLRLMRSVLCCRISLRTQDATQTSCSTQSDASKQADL
Outline: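 Cells (625000 cells/ml, mixed with cAMP-d2) were preincubated 20 min at RT with compound ([…]). They were then stimulated 60 min at RT with a 3× PGE2 solution (1.5 nM) in PBS-IBMX and lysed for 20 min. cAMP was read by HTRF as the 665/620 nm ratio ×10000, with antagonism seen as a rise in FRET signal.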

[4] = system: fertility of the female rat; assay: Single administration of EP2 receptor antagonists and COX inhibitors alone or in combination, fertility of the rat (implantation sites); assay type: in vivo, female Han Wistar rats
Experimental: 6. Effect of a Single Administration of EP2 Receptor Antagonists and COX Inhibitors Alone or in Combination on the Fertility of the Rat
In the experiments below, female Han Wistar rats having a weight of 200-270 g were used. The animals were kept in Makrolon cages in rooms with controlled lighting (12 hours of darkness; 12 hours of light), fed with a standard diet and provided with water ad libitum.
EP2 receptor antagonists were dissolved in benzyl benzoate/castor oil (1+4 v/v), and the dose was administered in a volume of 1 ml/kg of body weight s.c. Optionally, EP2 receptor antagonists were also administered orally in the same vehicle as the COX inhibitors (see below). […]
The COX inhibitors were suspended in a carrier liquid (85 mg of Myrj®53 polyoxyl(50)stearate; CAS No. 9004-99-3) in 100 ml of 0.9% w/v NaCl solution), and the dose corresponding to the treatment group was administered in a volume of 2 ml/kg of body weight.
Prior to the start of the experiment, two cycles were observed using vaginal swabs. Only animals having a regular 4-day cycle were used in the experiment. The animals were randomized to the treatment groups.
The animals were treated once in the proestrus, the day in the cycle when the LH peak occurs in the evening, with the test substances either alone or in combination. On the evening of the proestrus, the female animals mated with a male rat. Successive mating was confirmed by detection of vaginal sperms in the vaginal swab the next morning. The effect on fertility was determined 9-15 days after mating by the number of implantation sites of the animals. […]

[5] = Table 6.4, single administration in proestrus, E16 4 mg/animal, 17:00, data of n = 4 animals
[6] = Table 6.5, single administration in proestrus, E16 0.25 mg/animal, 17:00
[7] = Table 6.5, single administration in proestrus, E16 0.5 mg/animal, 17:00
[8] = Table 6.5, single administration in proestrus, E16 1 mg/animal, 17:00
[9] = Table 6.5, single administration in proestrus, E16 2 mg/animal, 17:00, data of n = 4 animals
[10] = Table 6.5, single administration in proestrus, E16 4 mg/animal, 17:00
[11] = proestrus, oral administration of EP2 receptor antagonist 2 mg/animal, divided to 16:00 and 17:00
[12] = single administration in proestrus, E16 1 mg/animal, 16:00
[13] = single administration in proestrus, E16 2 mg/animal, 16:00
[14] = single administration in proestrus, E16 4 mg/animal, 7:00
[15] = single administration in proestrus, E16 4 mg/animal, 13:00, data of n = 5 animals
[16] = single administration in proestrus, E16 4 mg/animal, 16:00
[17] = single administration in proestrus, E16 8 mg/animal, 16:00, data of n = 5 animals
[18] = single administration in proestrus, E161 2 mg/animal, 18:00
[19] = Table 6.4, single administration in proestrus, Meloxicam 0.25 mg/animal, 17:00, data of n = 5 animals
[20] = Table 6.4, single administration in proestrus, Meloxicam 0.5 mg/animal, 17:00
[21] = Table 6.4, single administration in proestrus, Meloxicam 1 mg/animal, 17:00
[22] = Table 6.4, single administration in proestrus, Meloxicam 2 mg/animal, 17:00, data of n = 5 animals
[23] = Table 6.5, single administration in proestrus, Meloxicam 2 mg/animal, 17:00, data of n = 5 animals

SMILES: COC(C)CNC(=O)c1ccc2nn(CC3CN(C(=O)c4ccc(Cl)cc4)C3)cc2c1C (single isomer, unassigned) [Example 140, (S or R)-2-{[1-(4-chlorobenzoyl)azetidin-3-yl]methyl}-N-(2-methoxypropyl)-4-methyl-2H-indazole-5-carboxamide]
Selectivity hEP2/hEP4 [1]: xxx (xxx >100) | Selectivity hEP2/hDP [2]: xxx (xxx >100)

SMILES: Cc1c(C(=O)NCC2COCCO2)ccc2nn(CC3CN(C(=O)c4ccc(Cl)cc4)C3)cc12 (single isomer, unassigned) [Example 143, (S or R)-2-{[1-(4-chlorobenzoyl)azetidin-3-yl]methyl}-N-(1,4-dioxan-2-yl-methyl)-4-methyl-2H-indazole-5-carboxamide]
Selectivity hEP2/hEP4 [1]: xxx (xxx >100) | Selectivity hEP2/hDP [2]: xxx (xxx >100)

SMILES: Cc1c(C(=O)NCC2CCCCO2)ccc2nn(CC3CN(C(=O)c4ccc(Cl)cc4)C3)cc12 (single isomer, unassigned) [Example 145, (R or S)-2-{[1-(4-chlorobenzoyl)azetidin-3-yl]methyl}-4-methyl-N-(3,4,5,6-tetrahydro-2H-pyran-2-ylmethyl)-2H-indazole-5-carboxamide]
Selectivity hEP2/hEP4 [1]: xxx (xxx >100) | Selectivity hEP2/hDP [2]: xxx (xxx >100)

SMILES: Cc1c(C(=O)NCC2CCCCO2)ccc2nn(CC3CN(C(=O)c4ccc(Cl)cc4)C3)cc12 (single isomer, unassigned) [Example 146, (S or R)-2-{[1-(4-chlorobenzoyl)azetidin-3-yl]methyl}-4-methyl-N-(3,4,5,6-tetrahydro-2H-pyran-2-ylmethyl)-2H-indazole-5-carboxamide]
Selectivity hEP2/hEP4 [1]: xxx (xxx >100) | Selectivity hEP2/hDP [2]: xxx (xxx >100)

SMILES: Cc1cnc(NC(=O)C2=C(O)c3ccccc3S(=O)(=O)N2C)s1 [Meloxicam, meloxicam, reference compound]
Absolute implantations number of 6 animals [4, 19]: 32* | Implantations per animal (mean ± SD) [4, 19]: 6.4 ± 5.9 | Absolute implantations number of 6 animals [4, 20]: 70 | Implantations per animal (mean ± SD) [4, 20]: 11.7 ± 6.4 | Absolute implantations number of 6 animals [4, 21]: 66 | Implantations per animal (mean ± SD) [4, 21]: 11 ± 5.5 | Absolute implantations number of 6 animals [4, 22]: 54* | Implantations per animal (mean ± SD) [4, 22]: 10.8 ± 4.4 | Absolute implantations number of 6 animals [4, 23]: 63* | Implantations per animal (mean ± SD) [4, 23]: 12.6 ± 3.4

Continued, in another order:

IC50 [3]: > 50 nM
SMILES: COCCNC(=O)c1ccc2nn(CC3CCN(C(=O)c4ccc(Oc5ccc(C(F)(F)F)cc5)cc4)CC3)cc2c1C [Example E16, N-(2-methoxyethyl)-4-methyl-2-[(1-{4-[4-(trifluoromethyl)phenoxy]benzoyl}piperidin-4-yl)methyl]-2H-indazole-5-carboxamide]
Absolute implantations number of 6 animals [4, 5]: 22** | Implantations per animal (mean ± SD) [4, 5]: 5.5 ± 5.4 | Absolute implantations number of 6 animals [4, 6]: 78 | Implantations per animal (mean ± SD) [4, 6]: 13 ± 2.3 | Absolute implantations number of 6 animals [4, 7]: 60 | Implantations per animal (mean ± SD) [4, 7]: 10 ± 2.8 | Absolute implantations number of 6 animals [4, 8]: 42 | Implantations per animal (mean ± SD) [4, 8]: 7 ± 5.4 | Absolute implantations number of 6 animals [4, 9]: 30** | Implantations per animal (mean ± SD) [4, 9]: 7.5 ± 1.7 | Absolute implantations number of 6 animals [4, 10]: 32 | Implantations per animal (mean ± SD) [4, 10]: 5.3 ± 4.5 | Absolute implantations number of 6 animals [4, 11]: 63 | Implantations per animal (mean ± SD) [4, 11]: 10.5 ± 1.5 | Absolute implantations number of 6 animals [4, 12]: 62 | Implantations per animal (mean ± SD) [4, 12]: 10.3 ± 2.5 | Absolute implantations number of 6 animals [4, 13]: 71 | Implantations per animal (mean ± SD) [4, 13]: 11.8 ± 2.1 | Absolute implantations number of 6 animals [4, 14]: 54 | Implantations per animal (mean ± SD) [4, 14]: 9.0 ± 3.4 | Absolute implantations number of 6 animals [4, 15]: 49* | Implantations per animal (mean ± SD) [4, 15]: 8.2 ± 3.1 | Absolute implantations number of 6 animals [4, 16]: 50 | Implantations per animal (mean ± SD) [4, 16]: 8.3 ± 3.4 | Absolute implantations number of 6 animals [4, 17]: 43* | Implantations per animal (mean ± SD) [4, 17]: 8.6 ± 2.8

IC50 [3]: > 50 nM
SMILES: COCCNC(=O)c1ccc2nn(CC3CCN(C(=O)c4ccc(Oc5ccc(C(F)(F)F)cn5)cc4)CC3)cc2c1C [Example E161, N-(2-methoxyethyl)-4-methyl-2-{[1-(4-{[5-(trifluoromethyl)pyridin-2-yl]oxy}benzoyl)piperidin-4-yl]methyl}-2H-indazole-5-carboxamide]
Absolute implantations number of 6 animals [4, 11]: 69 | Implantations per animal (mean ± SD) [4, 11]: 11.5 ± 3.1 | Absolute implantations number of 6 animals [4, 18]: 55 | Implantations per animal (mean ± SD) [4, 18]: 9.0 ± 3.4
